Among the data in ChEMBL document CHEMBL1142074, “In vitro activities of cloxyquin (5-chloroquinolin-8-ol) against Mycobacterium tuberculosis” (2007) are MIC, MIC50 and MIC90 values, retold here.

What all share (assay type): functional
The test system of experiment [1] is Mycobacterium tuberculosis. The experiment can be described thus: Antimycobacterial activity against Mycobacterium tuberculosis H37Ra ATCC 25177 by microplate alamar blue assay.
Experiment [2] concerns Mycobacterium tuberculosis. The experiment can be described thus: Antimycobacterial activity against para-aminosalicylic acid-resistant Mycobacterium tuberculosis H37Rv ATCC 35821 by microplate alamar blue assay.
The subject of experiment [3] is Mycobacterium tuberculosis. The experiment can be described thus: Antimycobacterial activity against Mycobacterium tuberculosis H37Rv ATCC 27294 by microplate alamar blue assay.
Experiment [4] deals with Mycobacterium tuberculosis. Kind of experiment: Antimycobacterial activity against Mycobacterium tuberculosis isolates from pulmonary tuberculosis patient by microplate alamar blue assay.

Converted amounts (≈) assume the structure as drawn.

For orientation: MIC means the least concentration at which growth counts as inhibited. Lower therefore signals greater potency. The term MIC50 denotes the lowest concentration that inhibits either 50% of growth or 50% of the strains tested, depending on the study. Read a low MIC50 as greater potency. By MIC90 is commonly meant the lowest concentration that inhibits either 90% of growth or 90% of the strains tested, depending on the study. Lower therefore signals higher susceptibility.

As for `Oc1c(I)cc(Cl)c2cccnc12` [CLIOQUINOL], the MIC in experiment [1] came out at 6.25 µg/mL (≈ 20.5 µM). Compound `Oc1c(Br)cc(Br)c2cccnc12` [BROXYQUINOLINE] came in with an MIC in experiment [1] of 6.25 µg/mL (≈ 20.6 µM). With `Oc1ccc(Cl)c2cccnc12` [CLOXYQUIN], the MIC in experiment [1], in experiment [2] and in experiment [3] was 0.125 µg/mL (≈ 0.696 µM) in each case. The MIC50 in experiment [4] was 0.125 µg/mL (≈ 0.696 µM). In experiment [4], this compound gave an MIC90 of 0.25 µg/mL (≈ 1.39 µM). For `Cc1ccc2c(Cl)cc(Cl)c(O)c2n1` [CHLORQUINALDOL], in experiment [1], the lowest concentration to inhibit growth (MIC) was 0.38 µg/mL (≈ 1.67 µM). `Oc1cccc2cccnc12` [OXYQUINOLINE] showed an MIC in experiment [1] of 0.125 µg/mL (≈ 0.861 µM).
